Consider 13 molecules from ChEMBL document CHEMBL1157415, “Isolation, structure elucidation, and synthesis of cytotoxic tryptanthrin analogues from Phaius mishmensis” (J Nat Prod, 2008).

A value given as a limit tells only on which side of the number the result lay.

What all share (assay type): functional, cell-based
One assay deals with SF-268. The assay is described as follows: Cytotoxicity against human SF268 cells.
For a further assay, the system named is NCI-H460. The assay is described as follows: Cytotoxicity against human NCI-H460 cells.
A further assay has as its system MCF7. The assay is described as follows: Cytotoxicity against human MCF7 cells.

With `COC(=O)CC1(O)c2ccccc2-n2c1nc1ccccc1c2=O` (centres undefined) [PHAITANTHRINS B], the half-maximal inhibitory concentration (IC50) in the assay with SF-268 (Homo sapiens, SF-268) is more than 50 µM; with NCI-H460 (Homo sapiens, NCI-H460), more than 50 µM; with MCF7 (Homo sapiens, MCF7), more than 50 µM.

Turning to `O=C1c2c(O)cccc2-n2c1nc1ccccc1c2=O` [PHAITANTHRIN C], the half-maximal inhibitory concentration (IC50) is more than 50 µM in the assay with SF-268 (Homo sapiens, SF-268); more than 50 µM in the assay on NCI-H460 (Homo sapiens, NCI-H460); more than 50 µM in the assay with MCF7 (Homo sapiens, MCF7).

Regarding `COC(=O)C1(O)c2ccccc2N=C2C(=O)c3ccccc3N21` (centres undefined) [METHYLISATOID], the IC50 in the assay with SF-268 (Homo sapiens, SF-268) was more than 50 µM; with NCI-H460 (Homo sapiens, NCI-H460), more than 50 µM; in the assay on MCF7 (Homo sapiens, MCF7), more than 50 µM.

Regarding `O=C1c2ccccc2-n2c1nc1ccccc1c2=O` [TRYPTANTHRIN], the concentration for half-maximal inhibition (IC50) in the assay with SF-268 (Homo sapiens, SF-268) stood at 24.4 µM; in the assay with NCI-H460 (Homo sapiens, NCI-H460), 9 µM; with MCF7 (Homo sapiens, MCF7) it was 11.1 µM.

`CCCCCCCCC(=O)CC1(O)c2ccccc2-n2c1nc1ccccc1c2=O` (centres undefined): the IC50 with SF-268 (Homo sapiens, SF-268) was more than 50 µM; with NCI-H460 (Homo sapiens, NCI-H460), 42.8 µM; in the assay with MCF7 (Homo sapiens, MCF7) it was 40.5 µM.

Turning to `O=C1/C(=c2\c3ccccc3n3c(=O)c4ccccc4nc23)Nc2ccccc21` [CANDIDINE], the IC50 in the assay with SF-268 (Homo sapiens, SF-268) is more than 50 µM; in the assay on NCI-H460 (Homo sapiens, NCI-H460) it was more than 50 µM; in the assay with MCF7 (Homo sapiens, MCF7), more than 50 µM.

For `COC(=O)c1c2ccccc2n2c(=O)c3ccccc3[nH]c12` [PHAITANTHRIN E], the 50% inhibitory concentration (IC50) was more than 50 µM in the assay on SF-268 (Homo sapiens, SF-268); more than 50 µM in the assay on NCI-H460 (Homo sapiens, NCI-H460); more than 50 µM in the assay on MCF7 (Homo sapiens, MCF7).

Take `O=C1CCCC1C1(O)c2ccccc2-n2c1nc1ccccc1c2=O` (stereo in doubt; 11): the IC50 with SF-268 (sf-268) turned out to be 34.8 µM; with NCI-H460 (nci-h460), 19.1 µM; in the assay on MCF7 (mcf7) it was 19.7 µM.

As to `O=C(CC1(O)c2ccccc2-n2c1nc1ccccc1c2=O)c1ccccc1` (centres undefined), the half-maximal inhibitory concentration (IC50) in the assay on SF-268 (Homo sapiens, SF-268) was more than 50 µM; in the assay with NCI-H460 (Homo sapiens, NCI-H460) it was more than 50 µM; in the assay on MCF7 (Homo sapiens, MCF7), more than 50 µM.

Consider `O=C1CCCC1C1(O)c2ccccc2-n2c1nc1ccccc1c2=O` (stereo in doubt; 12), for which the 50% inhibitory concentration (IC50) was found to be 33.9 µM in the assay on SF-268 (Homo sapiens, SF-268); 20.6 µM in the assay on NCI-H460 (Homo sapiens, NCI-H460); 20.7 µM with MCF7 (Homo sapiens, MCF7).

Consider `O=C1OC[C@@]23Nc4ccccc4C(=O)N2c2ccccc2[C@@H]13` [PHAITANTHRIN D], for which the IC50 in the assay on SF-268 (Homo sapiens, SF-268) is more than 50 µM; in the assay with NCI-H460 (Homo sapiens, NCI-H460), more than 50 µM; with MCF7 (Homo sapiens, MCF7) it was more than 50 µM.

On to `CCC(=O)C(C)C1(O)c2ccccc2-n2c1nc1ccccc1c2=O` (centres undefined), for which the IC50 in the assay with SF-268 (Homo sapiens, SF-268) came to 24.8 µM; with NCI-H460 (Homo sapiens, NCI-H460), 13.9 µM; with MCF7 (Homo sapiens, MCF7) it was 15.8 µM.

Take `CC(=O)CC1(O)c2ccccc2-n2c1nc1ccccc1c2=O` (centres undefined) [PHAITANTHRINS A]: the IC50 with SF-268 (Homo sapiens, SF-268) worked out at 45.4 µM; in the assay with NCI-H460 (Homo sapiens, NCI-H460), 31.4 µM; with MCF7 (Homo sapiens, MCF7), 28.2 µM.

By IC50 is commonly meant the point on the concentration scale where inhibition reaches its midpoint. The low end stands for inhibition by little substance, the high end for a need for much substance.
